From ChEMBL document CHEMBL5346881 (Eur J Med Chem, 2023)
pIC50: −log10 of the molar value.

How the values were obtained:
SK-OV-3 [1] = test: Antiproliferative activity against human SK-OV-3 cells assessed inhibition of cell growth incubated for 48 hrs by MTT assay; assay type: functional, cell-based; details: SK-OV-3, 48 h
[2] = Antiproliferative activity against human UWB1289 cells harboring BRCA1 assessed inhibition of cell growth incubated for 48 hrs by MTT assay; assay type: functional, cell-based; details: UWB1289, 48 h
PC-3 [3] = test: Antiproliferative activity against human PC-3 cells assessed inhibition of cell growth incubated for 48 hrs by MTT assay; assay type: functional, cell-based; details: PC-3, 48 h
MCF7 [4] = test: Antiproliferative activity against human MCF7 cells assessed inhibition of cell growth incubated for 48 hrs by MTT assay; assay type: functional, cell-based; details: MCF7, 48 h
MRC5 [5] = test: Antiproliferative activity against human MRC5 cells assessed inhibition of cell growth incubated for 48 hrs by MTT assay; assay type: functional, cell-based; details: MRC5, 48 h
SK-OV-3 [6] = test: Growth inhibition of human SK-OV-3 cells incubated for 48 hrs by MTT assay; assay type: functional
[7] = Growth inhibition of human UWB1289 cells harboring BRCA1 incubated for 48 hrs by MTT assay; assay type: functional
PC-3 [8] = test: Growth inhibition of human PC-3 cells incubated for 48 hrs by MTT assay; assay type: functional
MCF7 [9] = test: Growth inhibition of human MCF7 cells incubated for 48 hrs by MTT assay; assay type: functional
MRC5 [10] = test: Growth inhibition of human MRC5 cells incubated for 48 hrs by MTT assay; assay type: functional
[11] = Acute toxicity in ip dosed CB17 SCID mouse assessed as lethal dose; assay type: organism-based; set-up: LD20: unit not given here; details: in vivo
SK-OV-3 [12] = test: Antitumor activity against human SK-OV-3 cells xenografted in CB17 SCID mouse assessed as reduction in tumor volume at 36 mg/kg, ip administered as single dose measured after 11 days (reference value: 790 +/- 65.6 mm3); assay type: functional; details: time 11 day
SK-OV-3 [13] = test: Antitumor activity against human SK-OV-3 cells xenografted in CB17 SCID mouse assessed as tumor inhibition at 36 mg/kg, ip administered as single dose measured after 11 days; assay type: functional; details: SK-OV-3, 264 h, time 11 day, read-out: TGI
PC-3 [14] = test: Antitumor activity against human PC-3 cells xenografted in CB17 SCID mouse assessed as reduction in tumor volume at 36 mg/kg, ip administered as single dose measured after 21 days (reference value: 683 +/- 47.3 mm3); assay type: functional; details: time 21 day
PC-3 [15] = test: Antitumor activity against human PC-3 cells xenografted in CB17 SCID mouse assessed as tumor inhibition at 36 mg/kg, ip administered as single dose measured after 21 days; assay type: functional; details: PC-3, 504 h, time 21 day, read-out: TGI
P388 = test: Antitumor activity against mouse P388 cells xenografted in CB17 SCID mouse assessed as T/C ratio at 140 uM, ip administered as single dose measured after 17 days; assay type: functional; details: time 17 day
HT-29 = test: Antiproliferative activity against human HT-29 cells assessed inhibition of cell growth incubated for 48 hrs by MTT assay; assay type: functional, cell-based; details: HT-29, 48 h
LS174T = test: Antiproliferative activity against human LS174T cells assessed inhibition of cell growth incubated for 48 hrs by MTT assay; assay type: functional, cell-based
LoVo = test: Antiproliferative activity against human LoVo cells assessed inhibition of cell growth incubated for 48 hrs by MTT assay; assay type: functional, cell-based
MDA-MB-453 = test: Antiproliferative activity against human MDA-MB-453 cells assessed inhibition of cell growth incubated for 48 hrs by MTT assay; assay type: functional, cell-based; details: MDA-MB-453, 48 h
MDA-MB-231 = test: Antiproliferative activity against human MDA-MB-231 cells assessed inhibition of cell growth incubated for 48 hrs by MTT assay; assay type: functional, cell-based; details: MDA-MB-231, 48 h
HeLa = test: Antiproliferative activity against human HeLa cells assessed inhibition of cell growth incubated for 48 hrs by MTT assay; assay type: functional, cell-based
HuP-T3 = test: Antiproliferative activity against human HuP-T3 cells assessed inhibition of cell growth incubated for 48 hrs by MTT assay; assay type: functional, cell-based; details: HuP-T3, 48 h
SK-OV-3 [16] = test: Antitumor activity against human SK-OV-3 cells xenografted in CB17 SCID mouse assessed as tumor inhibition at 140 uM, ip administered as single dose measured after 17 days; assay type: functional; details: SK-OV-3, 408 h, time 17 day, read-out: TGI

| SMILES | pIC50 (SK-OV-3 [1]) | pIC50 [2] | pIC50 (PC-3 [3]) | pIC50 (MCF7 [4]) | pIC50 (MRC5 [5]) | GI50 (SK-OV-3 [6]) | TGI (SK-OV-3 [6]) | GI50 [7] | TGI [7] | GI50 (PC-3 [8]) | TGI (PC-3 [8]) | GI50 (MCF7 [9]) | TGI (MCF7 [9]) | GI50 (MRC5 [10]) | TGI (MRC5 [10]) | LD20 ([11]; ip) | LD50 ([11]; ip) | T/C (P388) | pIC50 (HT-29) | pIC50 (LS174T) | further results |
| --- | --- | --- | --- | --- | --- | --- | --- | --- | --- | --- | --- | --- | --- | --- | --- | --- | --- | --- | --- | --- | --- |
| CC(=O)O[C@@H](COc1ccc(N(CCCl)CCCl)cc1)C(=O)O[C@H]1CC[C@H]2[C@@H]3CCC4=CC(=O)NCC[C@]4(C)[C@H]3C(=O)C[C@]12C | 4.48 | 4.92 | 4.80 | 4.92 | 4.28 | 3.8 µM | 9 µM | 3 µM | 7 µM | 8.2 µM | 9 µM | 2.2 µM | 7 µM | 27 µM | 38 µM | – | – | – | – | – | – |
| C[C@]12CC[C@H]3[C@@H](CCC4=CC(=O)NCC[C@@]43C)[C@@H]1CC[C@@H]2OC(=O)[C@@H](O)COc1ccc(N(CCCl)CCCl)cc1 | 5.05 | 4.29 | 4.96 | 5.10 | 4.65 | 1 µM | 3.5 µM | 1.2 µM | 4 µM | 2 µM | 4 µM | 1.5 µM | 3.8 µM | 3 µM | 10 µM | – | – | – | – | – | LD50 ([11]; CB17 SCID, read-out: LD50): 28 mg/kg; LD10 ([11]; ip): 36 mg/kg; Activity (SK-OV-3 [12]): 192 mm3; inhibition in vivo at 36 mg/kg (SK-OV-3 [13]): 95%; Activity (PC-3 [14]): 181 mm3; inhibition in vivo at 36 mg/kg (PC-3 [15]): 85.2% |
| CC(=O)O[C@@H](COc1ccc(N(CCCl)CCCl)cc1)C(=O)Oc1ccc2c(c1)CC[C@@H]1[C@@H]2CC[C@]2(C)NC(=O)CC[C@@H]12 | 4.66 | 4.92 | 4.82 | 5.00 | 4.72 | 4 µM | 9 µM | 3 µM | 8.8 µM | 4.5 µM | 8.9 µM | 2 µM | 5.5 µM | 6.5 µM | 10 µM | – | – | – | – | – | – |
| C[C@]12CC(=O)[C@H]3[C@@H](CCC4=CC(=O)NCC[C@@]43C)[C@@H]1CC[C@@H]2OC(=O)CCOc1ccc(N(CCCl)CCCl)cc1 | 4.19 | 4.19 | – | – | – | – | – | – | – | – | – | – | – | – | – | 140 | 110 | 356 | 4.19 | 4.19 | pIC50 (LoVo): 4.19; pIC50 (MDA-MB-453): 4.19; pIC50 (MDA-MB-231): 4.19; pIC50 (HeLa): 4.19; pIC50 (HuP-T3): 4.19 |
| CC(=O)O[C@@H](COc1ccc(N(CCCl)CCCl)cc1)C(=O)O | < 4.00 | < 4.00 | < 4.00 | < 4.00 | < 4.00 | > 100 µM | > 100 µM | > 100 µM | > 100 µM | > 100 µM | > 100 µM | 80 µM | > 100 µM | 50 µM | > 100 µM | – | – | – | – | – | – |
| C[C@]12CC(=O)[C@H]3[C@@H](CCC4=CC(=O)NCC[C@@]43C)[C@@H]1CC[C@@H]2OC(=O)[C@@H](N)COc1ccc(N(CCCl)CCCl)cc1 | 5.40 | 5.40 | – | – | – | – | – | – | – | – | – | – | – | – | – | 10 | 14 | 109.9 | 5.40 | 5.40 | pIC50 (LoVo): 5.40; pIC50 (MDA-MB-453): 5.40; pIC50 (MDA-MB-231): 5.40; pIC50 (HeLa): 5.40; pIC50 (HuP-T3): 5.40; inhibition in vivo at 140 µM (SK-OV-3 [16]): 110% |
| C[C@]12CC(=O)[C@H]3[C@@H](CCC4=CC(=O)NCC[C@@]43C)[C@@H]1CC[C@@H]2OC(=O)[C@@H](O)COc1ccc(N(CCCl)CCCl)cc1 | 4.44 | 4.25 | 4.55 | 4.68 | 4.17 | 3.4 µM | 12 µM | 5 µM | 13.2 µM | 4 µM | 9 µM | 6 µM | 11 µM | 12 µM | 44 µM | – | – | – | – | – | – |
| C[C@]12CC[C@H]3[C@@H](CCC4=CC(=O)NCC[C@@]43C)[C@@H]1CC[C@@H]2OC(=O)[C@@H](N)COc1ccc(N(CCCl)CCCl)cc1 | 6.00 | 6.00 | – | – | – | – | – | – | – | – | – | – | – | – | – | 12.5 | 21 | 410.3 | 6.00 | 6.00 | pIC50 (LoVo): 6.00; pIC50 (MDA-MB-453): 6.00; pIC50 (MDA-MB-231): 6.00; pIC50 (HeLa): 6.00; pIC50 (HuP-T3): 6.00 |
| CC(=O)O[C@@H](COc1ccc(N(CCCl)CCCl)cc1)C(=O)O[C@H]1CC[C@H]2[C@@H]3CCC4=CC(=O)NCC[C@]4(C)[C@H]3CC[C@]12C | 5.41 | 5.20 | 5.05 | 5.37 | 4.67 | 0.8 µM | 2.2 µM | 0.7 µM | 2.2 µM | 1.7 µM | 3.9 µM | 1.5 µM | 3.4 µM | 3.9 µM | 15.3 µM | – | – | – | – | – | – |
